Data taken from patent publication US8178506B2, “Oligomeric compounds and compositions for use in modulation of small non-coding RNAs” (Regulus Therapeutics Inc., priority 2003, dated 2012).
In the oligonucleotide strings, read from the 5' end, every base follows the letter of its sugar. An asterisk marks phosphorothioate; unmarked linkages are phosphodiester. Other units and linkages are bracketed, terminal groups are in braces. A string of capitals states the bases alone. e = 2'-O-(2-methoxyethyl) (MOE); [5mC] = 5-methylcytosine; d = 2'-deoxy (DNA)

How the values were obtained:
B16-F10 cells = experiment: Cell cycle assay in B16-F10 cells; type: cell-based, mouse; conditions: 150 nM, 48 hours, relative to untreated control
[1] = test system: bulged mir-143 target sequence; experiment: pGL3-bulge(×3) luciferase assay in HeLa cells; type: cell-based, human; conditions: 24 hours; for luciferase activity from pGL3-bulge(×3): HeLa, 11, 33 and 100 nM; for luciferase expression: HeLa cells
Description: An expression system based on the pGL3-Control (Promega Corp., Madison Wis.) reporter vector and comprising predicted miRNA binding sites was used in transient transfections of HeLa cells with plasmids expressing oligomeric compounds mimicking miRNAs, pre-miRNAs or pri-miRNAs in order to assess the ability of these miRNA mimics to bind and regulate the expression of the luciferase reporter. The effect of increasing the copy number of the miRNA-binding site in the target was also tested by including multiple binding sites in artificial reporter constructs. It is understood that the presence of multiple miRNA-binding sites in a target can include binding sites for different miRNAs.
The following reporter plasmids were constructed by cloning the specified fragment into the XbaI site of the pGL3-control plasmid, placing the potential miRNA-binding site in the 3′-UTR of the luciferase reporter: The reporter plasmid pGL3-bulge(×3) contains three contiguous copies of the sequence ([…]; herein incorporated as SEQ ID NO: 874) which represents a sequence complementary to the mir-143 miRNA except that it is missing 2 nucleotides such that the mir-143 miRNA is presumed to adopt a bulged structure when it hybridizes to this target sequence. The pGL3-GLO1 reporter plasmid contains a DNA fragment comprising the 3′-UTR of the GLO1 sequence; this fragment was PCR-amplified using a primer beginning at nucleotide number 621 of the GLO1 sequence (GenBank Accession NM_006708.1, SEQ ID NO: 821) and the downstream primer hybridizing to the poly A tail. The pGL3-PP2A reporter plasmid contains a DNA fragment comprising the 3′-UTR of the PP2A gene; this fragment was PCR-amplified using a primer beginning at nucleotide number 921 of the PP2A sequence (GenBank Accession NM_004156.1) and the downstream primer hybridizing to the poly A tail. The reporter plasmid pGL3-ERK5-3′-UTR(×1) contains one copy of the sequence […] (herein incorporated as SEQ ID NO: 875), found in the 3′-UTR of ERK5 and predicted by Lewis, et al. to be bound by the mir-143 miRNA, and the reporter plasmid pGL3-ERK5-3′UTR(×3) has three contiguous copies of this sequence. The reporter plasmid pGL3-ERK5-3′UTR(ext) contains one copy of the sequence […] (herein incorporated as SEQ ID NO: 876), which includes an additional ten nucleotides at either end of the mir-143 binding site in 3′-UTR of ERK5 predicted by Lewis, et al. (Lewis et al., Cell, 2003, 115, 787-798). The plasmids pGL3-ERK5-cds(×1), pGL3-ERK5-cds(×2), pGL3-ERK5-cds(×3), and pGL3-ERK5-cds(×5) contain one, two, three or five contiguous copies, respectively, of the novel mir-143 binding site ([…]; herein incorporated as SEQ ID NO: 877) we identified within the coding sequence of ERK5. The unmodified pGL3-Control luciferase reporter vector was used as a negative control, and the pGL3-mir-143 sensor reporter plasmid was used as a positive control.
HeLa cells were routinely cultured and passaged as described. In some embodiments, HeLa cells were transfected with 0.05 μg of the relevant pGL3-sensor plasmid and 0.01 μg pRL-CMV plasmid. Additionally, in some embodiments, cells were treated at various dosages (11 nM, 33 nM, and 100 nM) with the following oligomeric compound mimics: 1) ds-mir-143, or 2) ds-Control as described. In accordance with methods described in Example 12, a luciferase assay was performed 24-hours after transfection. The results, shown in Tables 40 and 41, are an average of three trials. Data are presented as percent untreated control (luciferase plasmid only, not treated with oligomeric compound) luciferase expression, normalized to pRL-CMV levels.

| Substance | % cells in cell cycle phase G1 (B16-F10 cells) [%] | % cells in cell cycle phase G2/M (B16-F10 cells) [%] | % cells in cell cycle phase S (B16-F10 cells) [%] | % cells in cell cycle phase aneuploid (B16-F10 cells) [%] | % cells in cell cycle phase subG1 (B16-F10 cells) [%] | luciferase activity from pGL3-bulge(×3) [1] | luciferase activity from pGL3-bulge(×3) ([1]; listed as mir-143 dsRNA mimic compound) | luciferase expression ([1]; Table 40, pGL3-bulge(x3), 11 nM) [percent untreated control] | luciferase expression ([1]; Table 40, pGL3-bulge(x3), 33 nM) [percent untreated control] | luciferase expression ([1]; Table 40, pGL3-bulge(x3), 100 nM) [percent untreated control] | luciferase expression ([1]; Table 41, pGL3-bulge(x3), 11 nM) [percent untreated control] | luciferase expression ([1]; Table 41, pGL3-bulge(x3), 33 nM) [percent untreated control] | luciferase expression ([1]; Table 41, pGL3-bulge(x3), 100 nM) [percent untreated control] |
| --- | --- | --- | --- | --- | --- | --- | --- | --- | --- | --- | --- | --- | --- |
| 328403 (antisense eA*eG*eG*e[5mC]*e[5mC]*dT*dA*dT*dT*d[5mC]*d[5mC]*dT*dG*dT*dA*eG*e[5mC]*eA*eA*eA) [compound 328403] | 111 | 99 | 88 | 92 | 112 | – | – | – | – | – | – | – | – |
| ds-mir-143: double-stranded RNA of ISIS 342199 hybridized to its perfect complement ISIS 342200 (sense UGAGAUGAAGCACUGUAGCUCA; antisense UGAGCUACAGUGCUUCAUCUCA; RNA, backbone not given here) | – | – | – | – | – | dose-dependent inhibition of luciferase activity | inhibited luciferase activity from the pGL3-bulge(×3) sensor plasmid in a dose-dependent manner | 50.7 | 35.4 | 17.2 | 36.1 | 33.9 | 22.2 |
